Laboratory results: patent publication US20150136638A1, “METHOD FOR PREPARING A SYRUPY PRODUCT COMPRISING VITAMINS” (LaboratoiresUrgo, priority 2012, published 2015)

Assay: Assay of the vitamins contained in a randomly taken bottle of the syrupy product of Example 2 (yield = actual / theoretical amount x 100)
Type: physicochemical
Conditions: syrupy product of Example 2, after preparation and packaging under inert atmosphere; actual amount of vitamin in the bottle divided by theoretical amount x 100
Protocol: The process can be broken down into the following steps: • the two preparation tanks (PT1 and PT2) and the pipe connecting them are inerted with an overpressure of inert gas at 0.4 bar for 300 sec.; • the sugar syrup is introduced into the main preparation tank (PT1); • the sugar syrup is left to stir with bubbling of nitrogen with a pressure of 0.4 bar and a flow rate of 4 Nm^3/h for 4 hours; • the sugar syrup is heated at 50° C. by means of the double jackets surrounding tank PT1; • the pH of the sugar syrup is adjusted to 9.5 by introducing the sodium hydroxide and the ascorbic acid; • the secondary preparation tank (PT2) is preheated at 50° C. by means of the double jackets surrounding tank PT2; • the Montanox 80 and the following fat-soluble vitamins: vitamin A, vitamin D3, vitamin E, are introduced into the secondary preparation tank (PT2); • the mixture in tank PT2 is left to stir at 50° C. and with bubbling of nitrogen for 60 minutes; • the content of tank PT2 is transferred to tank PT1 via the pipe connecting them; • tank PT2 is rinsed several times with water, at 50° C., purified and deoxygenated beforehand, and the rinsing water is then transferred to tank PT1 via the pipe connecting PT2 to PT1; • the content of tank PT1 is left to stir at 50° C. and with bubbling of nitrogen for 60 minutes; • the temperature of the content of tank PT1 is reduced to 35° C.; • the following water-soluble vitamins: vitamin B1, vitamin B2, vitamin B3, vitamin B5, vitamin B6, vitamin B8, vitamin B12 and vitamin C, and also the plum flavoring, are introduced into tank PT1; • the reservoirs which contained the vitamins are rinsed with purified water and the rinsing water is added to tank PT1; • the content of tank PT1 is left to stir at 35° C. and with bubbling of nitrogen for 120 minutes; • the dehydrated glucose is introduced into tank PT1 via the powder-transferring system; • purified and deoxygenated water is introduced into tank PT1; • the content of tank PT1 is left to stir at 35° C. and with bubbling of nitrogen for 60 minutes; • the piping between tank PT1 and the storage tank is inerted, and the storage tank is inerted with a nitrogen pressure at 0.4 bar and a flow rate of 1 Nm^3/h for 300 seconds; • the content of tank PT1 is transferred to the storage tank passing through the mixer into which nitrogen is injected, in contraflow to the passage of the liquid, with a pressure of 0.4 bar and a flow rate of 8 Nm^3/h; • the syrupy product which gradually accumulates in the storage tank is kept stirring at 150 rpm and with bubbling of nitrogen with a pressure of 0.4 bar and a flow rate of 2 Nm^3/h; • the pipes between the storage tank and the bottle-filling machine, and also the packaging hopper, are inerted with nitrogen at a pressure of 0.3 bar for 600 seconds; • the syrupy product is transferred to the packaging hopper and the content is kept at a nitrogen pressure of 0.2 bar; • the syrupy product is gradually transferred to the bottle-filling machine; • the bottles are inerted with nitrogen at 1 bar for 100 milliseconds, then they are filled with a volume of syrupy product metered by a positive-displacement pump and they are kept under a nitrogen atmosphere until they are closed by means of a crimped valve.
One of the bottles produced is taken randomly and the vitamins contained in this bottle are assayed. The yields are calculated by dividing the actual amount of vitamins that is contained in the bottle by the theoretical amount of vitamins that should be in the bottle, and by multiplying the result by 100.

Molecule | YIELD (individual vitamin ratio)
CC1=C(/C=C/C(C)=C/C=C/C(C)=C/CO)C(C)(C)CCC1 [Vitamin A, retinol] | 100%
Cc1ncc(CO)c(CO)c1O [Vitamin B6, pyridoxine] | 98.6%
O=C(O)c1cccnc1 [Vitamin B3, nicotinic acid] | 98.8%
Vitamin E | 100%
Cc1cc2nc3c(=O)[nH]c(=O)nc-3n(C[C@H](O)[C@H](O)[C@H](O)CO)c2cc1C [Vitamin B2, riboflavin] | 98.6%
CC(C)(CO)[C@@H](O)C(=O)NCCC(=O)O [Vitamin B5, pantothenic acid] | 100%
